Measurements taken from patent publication US6878722B2, “Substituted cycloalkyl P1′ hepatitis C virus inhibitors” (Bristol-Myers Squibb Company, priority 2002, dated 2005).
Where two headings read alike, the source gives them in different places.

Legend:
[1] = tested on: HCV replicon in Huh7 cells; assay: HCV replicon cell-based assay (FRET); settings: HCV replicon, read-out: EC50 range
Source text: An HCV replicon whole cell system was established as described by Lohmann V, Korner F, Koch J, Herian U, Theilmann L, Bartenschlager R., Science 285(5424):110-3 (1999). This system enabled us to evaluate the effects of our HCV Protease compounds on HCV RNA replication. Briefly, using the HCV strain 1B sequence described in the Lohmann paper (Assession number: AJ238799), an HCV cDNA was generated encoding the 5′ internal ribosome entry site (IRES), the neomycin resistance gene, the EMCV (encephalomyocarditis viurs)-IRES and the HCV nonstructural proteins, NS3-NS5B, and 3′ non-translated region (NTR). In vitro transcripts of the cDNA were transfected into the human hepatoma cell line, Huh7. […] Resulting cell lines were characterized for positive and negative strand RNA production and protein production over time.
Huh7 cells, constitutively expressing the HCV replicon, were grown in Dulbecco's Modified Eagle Media (DMEM) containing 10% Fetal calf serum (FCS) and 1 mg/ml G418 (Gibco-BRL). Cells were seeded the night before (1.5×10^4 cells/well) in 96-well tissue-culture sterile plates. Compound and no compound controls were prepared in DMEM containing 4% FCS, 1:100 Penicillin/Streptomysin, 1:100 L-glutamine and 5% DMSO in the dilution plate (0.5% DMSO final concentration in the assay). Compound/DMSO mixes were added to the cells and incubated for 4 days at 37° C. After 4 days, plates were rinsed thoroughly with Phosphate-Buffered Saline (PBS) (3 times 150 μl). The cells were lysed with 25 μl of a lysis assay reagent containing the FRET peptide (RET S1, as described for the in vitro enzyme assay). The lysis assay reagent was made from 5× cell Luciferase cell culture lysis reagent(Promega #E153A) diluted to 1× with distilled water, NaCl added to 150 mM final, the FRET peptide diluted to 10 μM final from a 2 mM stock in 100% DMSO. The plate was then placed into the Cytofluor 4000 instrument which had been set to 340 nm excitation/490 emission, automatic mode for 21 cycles and the plate read in a kinetic mode. EC50 determinations were carried out as described for the IC50 determinations.

[2] = molecular target: T1, HCV NS3/4A protease complex (BMS strain, genotype 1a) (Hepatitis C virus genotype 1a, UniProt P27958, C1454S); assay: Recombinant HCV NS3/4A protease complex FRET peptide assay, BMS strain; type: biochemical; settings: NS3/4A BMS Strain
T1 construct: DNA encoding the recombinant HCV NS3/4A protease complex (amino acids 1027 to 1711) for these strains; inferred from the pET21b vector and Ni-NTA purification; made in house; host or cells: Escherichia coli BL21 (DE3), pET21b
T1 sequence (P27958 1658-1714, looked up, stated change not applied): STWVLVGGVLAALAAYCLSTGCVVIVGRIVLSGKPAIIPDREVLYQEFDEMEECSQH
T1 sequence (P27958 1027-1657, looked up, stated change not applied): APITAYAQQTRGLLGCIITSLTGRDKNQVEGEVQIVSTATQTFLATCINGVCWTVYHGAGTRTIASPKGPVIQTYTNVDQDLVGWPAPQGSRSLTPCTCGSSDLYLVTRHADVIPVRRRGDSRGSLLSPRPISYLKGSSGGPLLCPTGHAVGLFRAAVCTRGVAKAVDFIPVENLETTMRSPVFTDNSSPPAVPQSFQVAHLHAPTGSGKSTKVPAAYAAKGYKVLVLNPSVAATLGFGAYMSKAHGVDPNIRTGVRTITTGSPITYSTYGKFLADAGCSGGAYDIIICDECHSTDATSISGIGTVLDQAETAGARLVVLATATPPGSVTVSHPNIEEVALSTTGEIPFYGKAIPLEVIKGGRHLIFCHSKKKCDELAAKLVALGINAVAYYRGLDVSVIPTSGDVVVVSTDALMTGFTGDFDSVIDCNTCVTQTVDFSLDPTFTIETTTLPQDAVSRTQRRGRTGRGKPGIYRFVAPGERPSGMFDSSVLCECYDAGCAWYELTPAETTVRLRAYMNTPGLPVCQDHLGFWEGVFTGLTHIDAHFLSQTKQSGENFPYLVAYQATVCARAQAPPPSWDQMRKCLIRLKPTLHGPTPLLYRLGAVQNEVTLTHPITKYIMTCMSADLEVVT
Source text: The purpose of this in vitro assay was to measure the inhibition of HCV NS3 protease complexes, derived from the BMS, H77C or J416S strains, as described below, by compounds of the present invention.
Serum from an HCV-infected patient was obtained from Dr. T. Wright, San Francisco Hospital. An engineered full-length cDNA (compliment deoxyribonucleic acid) template of the HCV genome (BMS strain) was constructed from DNA fragments obtained by reverse transcription-PCR (RT-PCR) of serum RNA (ribonucleic acid) and using primers selected on the basis of homology between other genotype 1a strains. […] The infectious clones, H77C (1a genotype) and J4L6S (1b genotype) were obtained from R. Purcell (NIH) and the sequences are published in Genbank (AAB67036, see Yanagi,M., Purcell,R. H., Emerson,S. U. and Bukh,J. Proc. Natl. Acad. Sci. U.S.A. 94(16),8738-8743 (1997); AF054247, see Yanagi,M., St Claire,M., Shapiro,M., Emerson,S. U., Purcell,R. H. and Bukh,J, Virology 244 (1), 161-172. (1998)).
The BMS, H77C and J4L6S strains were used for production of recombinant NS3/4A protease complexes. DNA encoding the recombinant HCV NS3/4A protease complex (amino acids 1027 to 1711) for these strains were manipulated as described by P. Gallinari et al. (see Gallinari P, Paolini C, Brennan D, Nardi C, Steinkuhler C, De Francesco R. Biochemistry. 38(17):5620-32, (1999)). Briefly, a three-lysine solubilizing tail was added at the 3′-end of the NS4A coding region. The cysteine in the P1 position of the NS4A-NS4B cleavage site (amino acid 1711) was changed to a glycine to avoid the proteolytic cleavage of the lysine tag. Furthermore, a cysteine to serine mutation was introduced by PCR at amino acid position 1454 to prevent the autolytic cleavage in the NS3 helicase domain. The variant DNA fragment was cloned in the pET21b bacterial expression vector (Novagen) and the NS3/4A complex was expressed in Escherichia. coli strain BL21 (DE3) (Invitrogen) following the protocol described by P. Gallinari et al. (see Gallinari P, Brennan D, Nardi C, Brunetti M, Tomei L, Steinkuhler C, De Francesco R., J. Virol. 72(8):6758-69 (1998)) with modifications. Briefly, NS3/4A expression was induced with 0.5 mM Isopropyl β-D-1-thiogalactopyranoside (IPTG) for 22 hr at 20° C. […] The cells were resuspended in lysis buffer (10 mL/g) consisting of 25 mM N-(2-Hydroxyethyl)Piperazine-N′-(2-Ethane Sulfonic acid) (HEPES), pH 7.5, 20% glycerol, 500 mM Sodium Chloride (NaCl), 0.5% Triton-X100, 1 ug/ml lysozyme, 5 mM Magnesium Chloride (MgCl2), 1 ug/ml DnaseI, 5 mM β-Mercaptoethanol (βME), Protease inhibitor—Ethylenediamine Tetraacetic acid (EDTA) free (Roche), homogenized and incubated for 20 mins at 4° C. The homogenate was sonicated and clarified by ultra-centrifugation at 235000 g for 1 hr at 4° C. Imidazole was added to the supernatant to a final concentration of 15 mM and the pH adjusted to 8.0. The crude protein extract was loaded on a Nickel-Nitrilotriacetic acid (Ni-NTA) column pre-equilibrated with buffer B (25 mM HEPES, pH 8.0, 20% glycerol, 500 mM NaCl, 0.5% Triton-X100, 15 mM imidazole, 5 mM βME). The sample was loaded at a flow rate of 1 mL/min. The column was washed with 15 column volumes of buffer C (same as buffer B except with 0.2% Triton-X100). The protein was eluted with 5 column volumes of buffer D (same as buffer C except with 200 mM Imidazole).
NS3/4A protease complex-containing fractions were pooled and loaded on a desalting column Superdex-S200 pre-equilibrated with buffer D (25 mM HEPES, pH7.5, 20% glycerol, 300 mM NaCl, 0.2% Triton-X100, 10 mM βME).

Row | SMILES | EC50 ([1]; Hepatitis C virus, Huh-7) | IC50 ([2]; IC50 range) | EC50 [1] | IC50 ([2]; read-out: IC50 range)
1 | C=C[C@@H]1C[C@]1(NC(=O)[C@@H]1C[C@@H](Oc2cc(-c3ccccc3)nc3cc(OC)ccc23)CN1C(=O)[C@@H](NC(=O)OC(C)(C)C)C(C)(C)C)C(=O)NS(=O)(=O)C1(CCCC)CC1 [Compound 30, {1-[2-[1-(1-Butyl-cyclopropanesulfonylaminocarbonyl)-2-vinyl-cyclopropylcarbamoyl]-4-(7-methoxy-2-phenyl-quinolin-4-yloxy)-pyrrolidine-1-carbonyl]-2,2-dimethyl-propyl}-carbamic acid tert-butyl ester] | < 50 nM | < 50 nM | – | –
2 | C=C[C@@H]1C[C@]1(NC(=O)[C@@H]1C[C@@H](Oc2cc(-c3ccccc3)nc3cc(OC)ccc23)CN1C(=O)[C@@H](NC(=O)OC(C)(C)C)C(C)(C)C)C(=O)NS(=O)(=O)C1(CC(C)C)CC1 [Compound 31, {1-[2-[1-(1-Isobutyl-cyclopropanesulfonylaminocarbonyl)-2-vinyl-cyclopropylcarbamoyl]-4-(7-methoxy-2-phenyl-quinolin-4-yloxy)-pyrrolidine-1-carbonyl]-2,2-dimethyl-propyl}-carbamic acid tert-butyl ester] | 50 to 500 nM | < 50 nM | – | –
3 | C=C[C@@H]1C[C@]1(NC(=O)[C@@H]1C[C@@H](Oc2cc(-c3ccccc3)nc3cc(OC)ccc23)CN1C(=O)[C@@H](NC(=O)OC(C)(C)C)C(C)(C)C)C(=O)NS(=O)(=O)C1(CC2CCC2)CC1 [Compound 32, {1-[2-[1-(1-Cyclobutylmethyl-cyclopropanesulfonylaminocarbonyl)-2-vinyl-cyclopropylcarbamoyl]-4-(7-methoxy-2-phenyl-quinolin-4-yloxy)-pyrrolidine-1-carbonyl]-2,2-dimethyl-propyl}-carbamic acid tert-butyl ester] | < 50 nM | < 50 nM | – | –
4 | C=CCCCCCCCCC1(S(=O)(=O)NC(=O)C2(NC(=O)C3CC(Oc4cc(-c5ccccc5)nc5cc(OC)ccc45)CN3C(=O)C(NC(=O)OC(C)(C)C)C(C)(C)C)CC2C=C)CC1 (centres unmarked) [Compound 33] | – | – | 50 to 500 nM | < 50 nM
5 | C=CCCCCCCCC1(S(=O)(=O)NC(=O)C2(NC(=O)C3CC(Oc4cc(-c5ccccc5)nc5cc(OC)ccc45)CN3C(=O)C(NC(=O)OC(C)(C)C)C(C)(C)C)CC2C=C)CC1 (centres unmarked) [Compound 34, (1-{4-(7-Methoxy-2-phenyl-quinolin-4-yloxy)-2-[1-(1-non-8-enyl-cyclopropanesulfonylaminocarbonyl)-2-vinyl-cyclopropylcarbamoyl]-1-pyrrolidine-1-carbonyl}-2,2-dimethyl-propyl)-carbamic acid tert-butyl ester] | – | – | < 50 nM | < 50 nM
6 | C=C[C@@H]1C[C@]1(NC(=O)[C@@H]1C[C@@H](Oc2cc(-c3ccccc3)nc3cc(OC)ccc23)CN1C(=O)[C@@H](NC(=O)OC(C)(C)C)C(C)(C)C)C(=O)NS(=O)(=O)C1(CCOC)CC1 [Compound 35, {1-[2-{1-[1-(2-Methoxy-ethyl)-cyclopropanesulfonylaminocarbonyl]-2-vinyl-cyclopropylcarbamoyl}-4-(7-methoxy-2-phenyl-quinolin-4-yloxy)-pyrrolidine-1-carbonyl]-2,2-dimethyl-propyl}-carbamic acid tert-butyl ester] | < 50 nM | < 50 nM | – | –
7 | C=C[C@@H]1C[C@]1(NC(=O)[C@@H]1C[C@@H](Oc2cc(-c3ccccc3)nc3cc(OC)ccc23)CN1C(=O)[C@@H](NC(=O)OC(C)(C)C)C(C)(C)C)C(=O)NS(=O)(=O)C1(CCOCc2ccccc2)CC1 [Compound 36, {1-[2-{1-[1-(2-Benzyloxy-ethyl)-cyclopropanesulfonylaminocarbonyl]-2-vinyl-cyclopropylcarbamoyl}-4-(7-methoxy-2-phenyl-quinolin-4-yloxy)-pyrrolidine-1-carbonyl]-2,2-dimethyl-propyl}-carbamic acid tert-butyl ester] | < 50 nM | < 50 nM | – | –
8 | C=C[C@@H]1C[C@]1(NC(=O)[C@@H]1C[C@@H](Oc2cc(-c3ccccc3)nc3cc(OC)ccc23)CN1C(=O)[C@@H](NC(=O)OC(C)(C)C)C(C)(C)C)C(=O)NS(=O)(=O)C1(COC(C)C)CC1 [Compound 37, {1-[2-[1-(1-Isopropoxymethyl-cyclopropanesulfonylaminocarbonyl)-2-vinyl-cyclopropylcarbamoyl]-4-(7-methoxy-2-phenyl-quinolin-4-yloxy)-pyrrolidine-1-carbonyl]-2,2-dimethyl-propyl}-1-carbamic acid tert-butyl ester] | < 50 nM | < 50 nM | – | –
9 | C=C[C@@H]1C[C@]1(NC(=O)[C@@H]1C[C@@H](Oc2cc(-c3ccccc3)nc3cc(OC)ccc23)CN1C(=O)[C@@H](NC(=O)OC(C)(C)C)C(C)(C)C)C(=O)NS(=O)(=O)C1(Cl)CC1 [Compound 38, {1-[2-[1-(1-Chloro-cyclopropanesulfonylaminocarbonyl)-2-vinyl-cyclopropylcarbamoyl]-4-(7-methoxy-2-phenyl-quinolin-4-yloxy)-pyrrolidine-1-carbonyl]-2,2-dimethyl-propyl}-carbamic acid tert-butyl ester] | < 50 nM | < 50 nM | – | –
10 | C=C[C@@H]1C[C@]1(NC(=O)[C@@H]1C[C@@H](Oc2cc(-c3ccccc3)nc3cc(OC)ccc23)CN1C(=O)[C@@H](NC(=O)OC(C)(C)C)C(C)(C)C)C(=O)NS(=O)(=O)C1(I)CC1 [Compound 39, {1-[2-[1-(1-Iodo-cyclopropanesulfonylaminocarbonyl)-2-vinyl-cyclopropylcarbamoyl]-4-(7-methoxy-2-phenyl-quinolin-4-yloxy)-pyrrolidine-1-carbonyl]-2,2-dimethyl-propyl}-carbamic acid tert-butyl ester] | < 50 nM | < 50 nM | – | –
